In patent publication US6121297A, “Cyanoguanidines as cell proliferation inhibitors” (Leo Pharmaceutical Products Ltd. A/S, priority 1997, dated 2000) one finds IC50 data, which are given here for 5 compounds.

Common to all, as to type: cell-based
Assay [1] deals with human breast cancer (MCF-7). Description: Inhibition of tumour cell proliferation in vitro, MCF-7 ([3H]thymidine incorporation). As to conditions: MCF7, human MCF-7 cells, 24 hours, DNA synthesis by [3H]thymidine incorporation. On the procedure:
(§1) The inhibition of tumour cell proliferation was studied using different types of human cancer cell lines. The cell lines under investigation were small cell lung carcinoma (NYH), non small cell lung carcinoma (NCI-H460), and breast cancer (MCF-7) using the following general procedure:
(§2) The cells were cultured in vitro for 24 hours in the presence of the compound under investigation. DNA synthesis was measured by incorporation of [3H]thymidine, and the median inhibitory concentrations (IC50) of the compounds were calculated.
For orientation: Dividing cells build labelled thymidine or BrdU into new DNA.

The subject of assay [2] is human small cell lung carcinoma (NYH). The assay is described as follows: Inhibition of tumour cell proliferation in vitro, NYH ([3H]thymidine incorporation). To be noted: human NYH cells, 24 hours, DNA synthesis by [3H]thymidine incorporation. On the procedure: as §1, §2
Assay [3] concerns human non small cell lung cancer (NCI-H460). The assay is described as follows: Inhibition of tumour cell proliferation in vitro, NCI-H460 ([3H]thymidine incorporation). As to conditions: human NCI-H460 cells, 24 hours, DNA synthesis by [3H]thymidine incorporation. On the procedure:
as §1, §2

Turning to `N#CNC(=Nc1ccncc1)NCCCCCCCCCCCOc1ccccc1` [Example No. 1, N-Cyano-N'-(11-phenoxyundecyl)-N"-4-pyridylguanidine], the IC50 (as a rule, the concentration needed to halve the response being measured) in assay [1] turned out to be 0.021 µM; in assay [2] it was 0.0045 µM.
In the case of `N#CNC(=Nc1ccncc1)NCCCCCCCCCCOc1ccccc1` [Example No. 3, N-Cyano-N'-(10-phenoxydecyl)-N"-4pyridylguanidine], the IC50 is 0.013 µM in assay [1], 0.0059 µM in assay [2] and 0.049 µM in assay [3].
Consider `N#CNC(=Nc1ccncc1)NCCCCCCCCCOc1ccccc1` [Example No. 4, N-Cyano-N'-(9-phenoxynonyl)-N"-4-pyridylguanidine], for which the values for the 50% inhibitory concentration (IC50) in assay [1], in assay [2] and in assay [3] were 0.018 µM, 0.0053 µM and 0.043 µM, respectively.
The matching figures for `N#CN=C(NCCCCOc1ccccc1)Nc1ccncc1` [Prior art A, NCyano-N(4-phenoxybutyl)-N4-pyridylguanidine, reference compound]: 0.92 µM, 0.38 µM and above 1 µM.
The matching figures for `N#CN=C(NCCCCCOc1ccccc1)Nc1ccncc1` [Prior art B, NCyano-N(5-phenoxypentyl)-N4-pyridylguanidine, reference compound]: 0.25 µM, 0.045 µM and 0.067 µM.
